From ChEMBL document CHEMBL1146642, “5-Alkyl-2-[(aryl and alkyloxylcarbonylmethyl)thio]-6-(1-naphthylmethyl) pyrimidin-4(3H)-ones as an unique HIV reverse transcriptase inhibitors of S-DABO series” (Bioorg Med Chem Lett, 2004)

What was measured:
MT4 [1] = experiment: Cytotoxic concentration that reduces the MT-4 cell viability by 50%; type: functional; settings: Homo sapiens
MT4 [2] = experiment: Concentration required to protect the cell against HIV-2 strain ROD viral cytopathogenicity by 50% in MT-4 cells; NA denotes not active; type: functional, cell-based, Homo sapiens
MT4 [3] = experiment: Concentration required to protect the cell against HIV-2 strain ROD viral cytopathogenicity by 50% in MT-4 cells; type: functional, cell-based, Human immunodeficiency virus 2; settings: Homo sapiens
MT4 [4] = experiment: Concentration required to protect the cell against SO561945 viral cytopathogenicity by 50% in MT-4 cells; type: functional, cell-based; settings: Homo sapiens

| SMILES | CC50 (MT4 [1]) [µM] | IC50 (MT4 [2]) | IC50 (MT4 [3]) [µM] | IC50 (MT4 [4]) [µM] |
| --- | --- | --- | --- | --- |
| O=C1Nc2ccc(Cl)cc2[C@@](C#CC2CC2)(C(F)(F)F)O1 [EFAVIRENZ] | 80 | Not Active | – | – |
| CCc1c(O)nc(SCC(=O)c2ccc(OC)cc2)nc1Cc1cccc2ccccc12 | 178 | – | ≥ 18.9 | – |
| CCc1c(O)nc(SCC(=O)OC)nc1Cc1cccc2ccccc12 | ≥ 196 | – | ≥ 196 | – |
| COC(=O)CSc1nc(O)c(C(C)C)c(Cc2cccc3ccccc23)n1 | 179 | – | > 179 | – |
| Cc1ccc(C(=O)CSc2nc(O)c(C)c(Cc3cccc4ccccc34)n2)cc1 | ≥ 251 | – | ≥ 13.6 | ≥ 251 |
| CC(=O)CSc1nc(O)c(C(C)C)c(Cc2cccc3ccccc23)n1 | 43 | – | > 43.1 | – |
| CCc1c(O)nc(SCC(=O)c2ccc(F)cc2)nc1Cc1cccc2ccccc12 | ≥ 240 | – | 16.3 | – |
| CC(C)c1c(O)nc(SCC(=O)c2ccc(F)cc2)nc1Cc1cccc2ccccc12 | 186 | – | ≥ 32.2 | – |
| CC(=O)CSc1nc(O)c(C)c(Cc2cccc3ccccc23)n1 | 85 | – | ≥ 84.9 | – |
| Cc1c(O)nc(SCC(=O)c2ccc(F)cc2)nc1Cc1cccc2ccccc12 | ≥ 275 | – | ≥ 275 | – |
| COc1ccc(C(=O)CSc2nc(Cc3cccc4ccccc34)c(C(C)C)c(=O)[nH]2)cc1 | ≥ 203 | – | 13.4 | – |
| COc1ccc(C(=O)CSc2nc(O)c(C)c(Cc3cccc4ccccc34)n2)cc1 | > 290 | – | ≥ 0.42 | – |
| O=c1[nH]cnc2c1ncn2[C@H]1CC[C@@H](CO)O1 [DIDANOSINE] | ≥ 529 | – | 2.71 | – |
| Cc1ccc(C(=O)CSc2nc(O)c(C(C)C)c(Cc3cccc4ccccc34)n2)cc1 | 225 | – | ≥ 225 | – |
| CC(C)c1c(O)nc(SCC(=O)c2ccc(Cl)cc2)nc1Cc1cccc2ccccc12 | > 270 | – | > 270 | – |
| CCOC(=O)CSc1nc(O)c(C)c(Cc2cccc3ccccc23)n1 | ≥ 287 | – | ≥ 293 | – |
| Cc1c(O)nc(SCC(=O)c2ccc(Cl)cc2)nc1Cc1cccc2ccccc12 | ≥ 198 | – | 19.8 | – |
| Cc1c(Sc2ccccc2)n(COCCO)c(=O)[nH]c1=O [HEPT] | 405 | Not Active | – | – |
| Cc1ccnc2c1NC(=O)c1cccnc1N2C1CC1 [NEVIRAPINE] | > 200 | Not Active | – | – |
| Cc1ccc(C(=O)CSc2nc(O)c(C(C)C)c(Cc3cccc4ccccc34)n2)c(C)c1 | 27 | – | 4 | – |
| COC(=O)CSc1nc(O)c(C)c(Cc2cccc3ccccc23)n1 | ≥ 296 | – | ≥ 296 | – |
| CCc1c(O)nc(SCC(=O)c2ccc(C)cc2)nc1Cc1cccc2ccccc12 | 6 | – | ≥ 1.25 | – |
| CC(C)c1c(O)nc(SCC(=O)c2ccccc2)nc1Cc1cccc2ccccc12 | 238 | – | 22 | – |
| CCc1c(O)nc(SCC(=O)c2ccc(Cl)cc2)nc1Cc1cccc2ccccc12 | 56 | – | ≥ 0.26 | – |
| CCOC(=O)CSc1nc(O)c(C(C)C)c(Cc2cccc3ccccc23)n1 | 175 | – | ≥ 41.1 | – |
